36 molecules from PubChem BioAssay AID1320 (NMMLSC, 2008) can be followed below.

The structures appear in SMILES notation. Calls of active or inactive are those of the source. The rule behind the calls is not given here.

For the assay, the target named is Bcl-2-related protein A1 (Homo sapiens) (UniProt Q16548). Nature of the assay: Bfl-1/Bim complex disruptors – biochemical, multiplexed, bead-based flow cytometry, dose response (AID 1320). Note: test concentration not given here. The conditions noted are these: Bim peptide-Bfl-1 binding, fluorescence.
Sequence of Bcl-2-related protein A1 (Homo sapiens) (Q16548 whole entry, looked up): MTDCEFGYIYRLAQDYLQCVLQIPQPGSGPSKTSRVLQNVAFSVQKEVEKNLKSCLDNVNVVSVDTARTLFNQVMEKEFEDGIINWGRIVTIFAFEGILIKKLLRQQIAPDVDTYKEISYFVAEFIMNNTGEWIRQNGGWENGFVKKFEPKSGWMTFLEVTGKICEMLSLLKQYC
Regarding `COC(=O)c1cccc(-n2c(C)cc(C=O)c2C)c1`, the “percent span (inhibition)” value is “inactive”. Under `Cc1nc2cc(F)ccc2n1C1CCN(C(=O)c2c(F)cccc2F)CC1` stands “inactive”; under `COc1ccc2nc(C)cc(SCC(=O)N/N=C/c3ccc(O)c(O)c3)c2c1`, “inactive”; under `COc1ccc(NC(=O)Cc2c(F)cccc2Cl)c(OC)c1`, “inactive”. The value for `CCOC(=O)N1CCC(c2cc(=O)n(-c3ccccc3)[nH]2)CC1` was “inactive”; that for `CC1CCN(C2(O)C(=O)Nc3ccc(Br)cc32)CC1` (stereo unspecified) was “inactive”; that for `COc1ccc(OCCNC(=O)c2ccccc2OCC(=O)N2CCCCC2)cc1` was “inactive”. In the case of `O=C(O)c1cccc(NC2=C(Cl)C(=O)c3ccccc3C2=O)c1`, the “percent span (inhibition)” value was “inactive”. Regarding `Cc1cc(N2CCN(C)CC2)nc2ccc(NC(=S)N3CCN(c4cccc(Cl)c4)CC3)cc12`, the “percent span (inhibition)” value was “inactive”. With `CCOc1cc(S(=O)(=O)N2CCCCC2)ccc1F`, the “percent span (inhibition)” value was “inactive”. For the molecule `Cc1ccc(NC(=O)C/C(N)=N/OC(=O)c2ccccc2)cc1`, the “percent span (inhibition)” value is “inactive”. As for `Nc1ccc(N2CCCCCC2)cc1`, the “percent span (inhibition)” value is “inactive”.

On to `O=C1/C(=C/c2cccs2)Sc2ccccc21`, for which the “percent span (inhibition)” value is “inactive”. As to `COc1ccc(C2=Nn3c(nnc3-c3ccco3)SC2)cc1OC`, the “percent span (inhibition)” value is “inactive”. Consider `Cc1ccc(SCCC(=O)Nc2ccc(Br)c(C)c2)cc1`, for which the “percent span (inhibition)” value was “inactive”. As for `O=C1C=C(Nc2ccccc2)C(=O)c2ccccc21`, the “percent span (inhibition)” value was “inactive”.

As to `Cc1ccc2c(c1)C1CN(C)CCC1N2C(=O)Nc1cccc(Cl)c1` (stereo unspecified), the “percent span (inhibition)” value is “inactive”. In the case of `Cc1c(N2C(=O)c3ccc4c5c(ccc(c35)C2=O)CC4)c(=O)n(-c2ccccc2)n1C`, the “percent span (inhibition)” value is “inactive”. Under `Cn1c(N)c(C(=O)COC(=O)c2cncc(Br)c2)c(=O)n(C)c1=O` stands “inactive”; under `COCCCNc1nc(=S)[nH]c2cc(OC)c(OC)cc12`, “inactive”; under `O=C(COCC(=O)NCc1ccccc1)NCc1ccccc1`, “inactive”. Under `O=C(NC1=NCCS1)NC12CC3CC(CC(C3)C1)C2` stands “inactive”; under `COc1ccc(CC(=O)Nc2ccc3nc(C)sc3c2)cc1OC`, “inactive”.

For `Nc1ccc(-c2cn3cccnc3n2)cc1`, the “percent span (inhibition)” value was “inactive”. Regarding `COc1ccc(OC)c(-n2c(=O)c3ccccc3c3ccccc3c2=O)c1`, the “percent span (inhibition)” value was “inactive”.

For `CNC(=O)CC1C(=O)N(Cc2ccccc2)C(=S)N1NC(=O)c1cccc(F)c1` (stereo unspecified), the “percent span (inhibition)” value was “inactive”.

For the molecule `Cn1cccc1CC(=O)N/N=C\c1ccccc1`, the “percent span (inhibition)” value is “inactive”. In the case of `COc1ccc(C2C(C#N)=C(C)NC3=C2S(=O)(=O)c2ccccc23)cc1` (stereo unspecified), the “percent span (inhibition)” value was “inactive”.

In the case of `COc1ccc(CN(CC(=O)NC2CCCC2)C(=O)CCC(=O)Nc2cc(C)on2)cc1`, the “percent span (inhibition)” value is “inactive”.

As to `Cc1cc(C)n(CC(=O)N/N=C/c2cccc([N+](=O)[O-])c2)n1`, the “percent span (inhibition)” value is “inactive”. As to `CCOc1ccccc1C(=O)NC1CC2CCCC(C1)N2C1CC1` (stereo unspecified), the “percent span (inhibition)” value was “inactive”. Consider `COc1ccc2nc(NC(=O)c3ccc(-c4cccc([N+](=O)[O-])c4)o3)sc2c1`, for which the “percent span (inhibition)” value is “inactive”. Turning to `CCOC(=O)C1(Cc2cccc(OC)c2)CCN(Cc2cccc(OC)c2OC)CC1`, the “percent span (inhibition)” value is “inactive”. For `Cc1cc(-c2nnc(CCC(=O)NC(C)c3cccc4ccccc34)o2)no1` (stereo unspecified), the “percent span (inhibition)” value is “inactive”. Turning to `CC(=O)Nc1ccc2nc(CN3CCN(CC(C)C)C(CCO)C3)ccc2c1` (stereo unspecified), the “percent span (inhibition)” value was “inactive”.

As to `CCCn1c(SCC(=O)Nc2ccccc2-c2ccccc2)nnc1-c1ccoc1C`, the “percent span (inhibition)” value was “inactive”.
